Data published in ChEMBL document CHEMBL1201862, “PubChem BioAssay data set” (2004).
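Growth conditions: 96-well plates. Treatment: test compound, 48 hours, 5 concentrations. Analysis: linear interpolation between bracketing concentrations; unreached endpoints set to highest concentration. Abbreviation: GI50, concentration required for 50% inhibition of growth.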 Calls of active or inactive are those of the source. No stated cut-off is given here; in the data, active = GI50 up to about 1.1 µM and inactive = higher.

Key:
Assay in all cases: DTP human tumour cell line panel, 48 h
[1] = tested on: DMS-114
[2] = tested on: DMS-273
[3] = tested on: HOP-18
[4] = tested on: KM-20L2
[5] = tested on: LXFL 529
[6] = tested on: M19-MEL
[7] = tested on: RXF 631
[8] = tested on: SNB-78
[9] = tested on: XF498

COC(=O)C(=O)C(C(=O)C(=O)Nc1ccccc1C(N)=O)c1nc2ccc(C(=O)c3ccccc3)cc2nc1O (centres undefined)
GI50 [1]: > 100 µM (inactive) | GI50 [2]: 62.8 µM (inactive) | GI50 [3]: 37.1 µM (inactive) | GI50 [4]: > 100 µM (inactive) | GI50 [5]: 44.6 µM (inactive) | GI50 [6]: > 100 µM (inactive) | GI50 [7]: > 100 µM (inactive) | GI50 [8]: 68.7 µM (inactive) | GI50 [9]: > 100 µM (inactive)

O=C(O)[C@H](NS(=O)(=O)c1ccc([N+](=O)[O-])cc1)c1ccccc1
GI50 [1]: > 100 µM (inactive) | GI50 [2]: > 100 µM (inactive) | GI50 [3]: > 100 µM (inactive) | GI50 [4]: > 100 µM (inactive) | GI50 [5]: > 100 µM (inactive) | GI50 [6]: > 100 µM (inactive) | GI50 [7]: > 100 µM (inactive) | GI50 [8]: > 100 µM (inactive) | GI50 [9]: > 100 µM (inactive)

C=CC[C@@]1(C#N)C[C@H](C[C@]2(C#N)C[C@H](CCl)OC(C)(C)O2)OC(C)(C)O1
GI50 [1]: 41.2 µM (inactive) | GI50 [2]: > 100 µM (inactive) | GI50 [3]: > 100 µM (inactive) | GI50 [4]: > 100 µM (inactive) | GI50 [6]: > 100 µM (inactive) | GI50 [9]: 81.1 µM (inactive)

C=C(c1ccccc1)C1(O)CCCCC1N (centres undefined)
GI50 [1]: > 100 µM (inactive) | GI50 [2]: > 100 µM (inactive) | GI50 [3]: > 100 µM (inactive) | GI50 [4]: > 100 µM (inactive) | GI50 [5]: > 100 µM (inactive) | GI50 [6]: > 100 µM (inactive) | GI50 [8]: > 100 µM (inactive)

COC(=O)/C=C/C(=O)C1C(C(=O)OC)C2(C(=O)OC)CCC1(C(=O)OC)N2 (centres undefined)
GI50 [1]: > 100 µM (inactive) | GI50 [3]: > 100 µM (inactive) | GI50 [6]: > 100 µM (inactive) | GI50 [8]: > 100 µM (inactive) | GI50 [9]: 0.198 µM (active)

O=C(CCC(=O)Nc1ccc(Cl)c(Cl)c1)Cc1nc2ccccc2o1
GI50 [1]: > 100 µM (inactive) | GI50 [2]: > 100 µM (inactive) | GI50 [3]: > 100 µM (inactive) | GI50 [4]: > 100 µM (inactive) | GI50 [5]: > 100 µM (inactive) | GI50 [6]: > 100 µM (inactive) | GI50 [7]: > 100 µM (inactive) | GI50 [8]: > 100 µM (inactive)

[O-][N+]1=C(c2ccccc2)COc2ccccc21
GI50 [1]: > 100 µM (inactive) | GI50 [2]: > 100 µM (inactive) | GI50 [3]: > 100 µM (inactive) | GI50 [4]: > 100 µM (inactive) | GI50 [5]: > 100 µM (inactive) | GI50 [6]: > 100 µM (inactive) | GI50 [7]: 70.1 µM (inactive) | GI50 [8]: > 100 µM (inactive)

COc1cc(C(Cc2ccccc2)NC(C)=O)oc(=O)c1 (centres undefined)
GI50 [1]: > 100 µM (inactive) | GI50 [2]: > 100 µM (inactive) | GI50 [4]: > 100 µM (inactive) | GI50 [5]: > 100 µM (inactive) | GI50 [6]: > 100 µM (inactive) | GI50 [9]: > 100 µM (inactive)

COc1cc2c(cc1O)CCN[C@@]21CS[C@H]2c3c(OC(C)=O)c(C)c4c(c3C(COC1=O)N1C2C2NC(Cc3cc(C)c(OC)c(O)c32)[C@@H]1C#N)OCO4 (some centres undefined)
GI50 [1]: < 0.01 µM (active) | GI50 [2]: < 0.01 µM (active) | GI50 [4]: < 0.01 µM (active) | GI50 [5]: < 0.01 µM (active) | GI50 [6]: < 0.01 µM (active) | GI50 [7]: < 0.01 µM (active) | GI50 [9]: < 0.01 µM (active)

CC(C)N(C(=O)C12C3C4C5C3C1(C(=O)N(C(C)C)C(C)C)C5(C#N)C42)C(C)C (centres undefined)
GI50 [1]: > 100 µM (inactive) | GI50 [2]: 45.8 µM (inactive) | GI50 [3]: > 100 µM (inactive) | GI50 [4]: > 100 µM (inactive) | GI50 [5]: > 100 µM (inactive) | GI50 [6]: > 100 µM (inactive) | GI50 [7]: > 100 µM (inactive) | GI50 [8]: > 100 µM (inactive) | GI50 [9]: > 100 µM (inactive)

CC(C)(C)OC(=O)NC1CCCC1=O (centres undefined)
GI50 [2]: > 100 µM (inactive) | GI50 [4]: > 100 µM (inactive) | GI50 [5]: > 100 µM (inactive) | GI50 [6]: > 100 µM (inactive) | GI50 [7]: > 100 µM (inactive) | GI50 [8]: > 100 µM (inactive) | GI50 [9]: > 100 µM (inactive)

CNC1=C(C)C(=O)C(C)=C(C(C)(C)CC(=O)n2cc(F)c(=O)[nH]c2=O)C1=O
GI50 [1]: 74.6 µM (inactive) | GI50 [2]: 23.1 µM (inactive) | GI50 [3]: > 100 µM (inactive) | GI50 [4]: 31.3 µM (inactive) | GI50 [5]: > 89.1 µM (inactive) | GI50 [6]: 49.7 µM (inactive) | GI50 [7]: 23.4 µM (inactive) | GI50 [8]: > 100 µM (inactive) | GI50 [9]: 97.7 µM (inactive)

C=C1CCC2C(C)(CO)C(O)CCC2(C)C1CC(O)C1=CCOC1=O (centres undefined)
GI50 [1]: 41.8 µM (inactive) | GI50 [2]: > 100 µM (inactive) | GI50 [3]: 54.7 µM (inactive) | GI50 [4]: 47.4 µM (inactive) | GI50 [5]: 27 µM (inactive) | GI50 [6]: 45.5 µM (inactive) | GI50 [7]: 30.5 µM (inactive)

O=C1COc2cc3c(cc2N1)SCC(=O)N3
GI50 [1]: > 100 µM (inactive) | GI50 [2]: > 100 µM (inactive) | GI50 [3]: > 100 µM (inactive) | GI50 [5]: > 100 µM (inactive) | GI50 [6]: > 100 µM (inactive) | GI50 [7]: > 100 µM (inactive) | GI50 [8]: > 100 µM (inactive) | GI50 [9]: > 100 µM (inactive)

COc1ccc(C2C(C(=O)O)=C(COC(C)=O)Oc3cc4c(cc32)OCO4)c(OC)c1 (centres undefined)
GI50 [1]: > 100 µM (inactive) | GI50 [2]: > 100 µM (inactive) | GI50 [3]: > 100 µM (inactive) | GI50 [4]: > 100 µM (inactive) | GI50 [6]: > 100 µM (inactive) | GI50 [7]: > 100 µM (inactive) | GI50 [8]: > 100 µM (inactive) | GI50 [9]: > 100 µM (inactive)

CCOc1cc2ccc3c4cc(OC)c(OC)cc4cnc3c2cc1OCC
GI50 [1]: > 100 µM (inactive) | GI50 [3]: > 100 µM (inactive) | GI50 [4]: > 100 µM (inactive) | GI50 [5]: > 100 µM (inactive) | GI50 [6]: > 100 µM (inactive) | GI50 [8]: > 100 µM (inactive) | GI50 [9]: > 100 µM (inactive)

COC(=O)/C([Se]c1c(C)cc(C)cc1C)=C(\[Se]c1c(C)cc(C)cc1C)C(=O)OC
GI50 [1]: > 100 µM (inactive) | GI50 [2]: > 100 µM (inactive) | GI50 [3]: > 100 µM (inactive) | GI50 [4]: > 100 µM (inactive) | GI50 [5]: > 100 µM (inactive) | GI50 [6]: > 100 µM (inactive) | GI50 [7]: > 100 µM (inactive) | GI50 [8]: > 100 µM (inactive)

COc1cccc2c1c1ccc3c(c1n2C)C(=O)C=CC3=O
GI50 [1]: 20 µM (inactive) | GI50 [2]: 16 µM (inactive) | GI50 [3]: 14.1 µM (inactive) | GI50 [4]: 63.4 µM (inactive) | GI50 [5]: 12 µM (inactive) | GI50 [6]: 1.24 µM (inactive) | GI50 [8]: 18.7 µM (inactive) | GI50 [9]: 15.8 µM (inactive)

Cc1ccc2nc(NC(=O)/C(=N\NC(=S)NN)C3C(=O)NC(=S)NC3=O)sc2c1
GI50 [2]: > 100 µM (inactive) | GI50 [3]: 80 µM (inactive) | GI50 [4]: > 100 µM (inactive) | GI50 [5]: > 100 µM (inactive) | GI50 [7]: > 100 µM (inactive) | GI50 [8]: > 100 µM (inactive) | GI50 [9]: > 100 µM (inactive)

C/N=C(\N)c1ccc(NC(=N)c2ccc(C(=N)Nc3ccc(/C(N)=N/C)cc3)cc2)cc1
GI50 [1]: > 100 µM (inactive) | GI50 [2]: > 100 µM (inactive) | GI50 [5]: > 100 µM (inactive) | GI50 [6]: > 100 µM (inactive) | GI50 [7]: > 100 µM (inactive)

NCC1(N2CCOCC2)C2CCCC21CO (centres undefined)
GI50 [1]: > 100 µM (inactive) | GI50 [2]: > 100 µM (inactive) | GI50 [3]: > 100 µM (inactive) | GI50 [5]: > 100 µM (inactive) | GI50 [6]: > 100 µM (inactive) | GI50 [8]: > 100 µM (inactive)

COc1ccc([Se][Se]c2ccc(OC)cc2OC)c(OC)c1
GI50 [1]: 2.01 µM (inactive) | GI50 [2]: 5.12 µM (inactive) | GI50 [3]: 1.97 µM (inactive) | GI50 [5]: 2.1 µM (inactive) | GI50 [6]: 2.03 µM (inactive) | GI50 [7]: 6.31 µM (inactive) | GI50 [8]: 2.66 µM (inactive) | GI50 [9]: 1.94 µM (inactive)

CCN(CCCl)CCCCNc1c2ccccc2nc2ccc(OC)cc12
GI50 [1]: 0.323 µM (active) | GI50 [2]: 0.0865 µM (active) | GI50 [4]: 0.238 µM (active) | GI50 [5]: 0.0923 µM (active) | GI50 [6]: 0.235 µM (active) | GI50 [7]: 0.553 µM (active) | GI50 [8]: 0.527 µM (active)
